Holding throughout (format): cell-based
One assay deals with K562 cells. Kind of assay: Cell growth inhibitory activity assay (CellTiter-Glo), K562 cells. Conditions: Homo sapiens, 72 h, CTG cell viability. An outline of the steps:
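K562 cells in logarithmic growth were counted, diluted and plated in 96-well plates, with medium-only blanks and a separate T0 plate read by CTG the following day. After overnight incubation, graded compound concentrations were added for 72 h, with 0.5% DMSO wells as growth controls. Luminescence was read on a Biotek cytation3.0, and IC50 came from nonlinear fitting in GraphPad Prism 7.0.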

The target in the next assay is T1, Ba/F3 BCR-ABL1 WT (Homo sapiens, UniProt P00519+P11274).
T1 construct: BCR (N-terminal fusion partner of the oncoprotein); expressed in transfected cells; host or cells: Ba/F3 (lentiviral transduction, monoclonal line)
Kind of assay: Cell growth inhibitory activity assay (CellTiter-Glo), Ba/F3 BCR-ABL1 WT cells. Conditions: 72 h, CTG cell viability. The method, boiled down: (§1)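 Compound dilutions applied for 72 h (37 °C, 5% CO2) to overnight-plated Ba/F3 cells, parental or engineered to express WT/mutant BCR-ABL1. ATP-based CellTiter-Glo luminescence read, referenced to day-0 viability and 0.5% DMSO wells; IC50 fitted by four-parameter logistic curve.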
Background: Cellular ATP, detected with luciferase, serves as a proxy for viable cell number.

The target in a further assay is T2, Ba/F3 BCR-ABL1 T315I (Homo sapiens, UniProt P00519+P11274, T315I).
T2 construct: BCR (N-terminal fusion partner of the oncoprotein); expressed in transfected cells; host or cells: Ba/F3 (lentiviral transduction, monoclonal line)
Description: Cell growth inhibitory activity assay (CellTiter-Glo), Ba/F3 BCR-ABL1 T315I cells. Conditions: 72 h, CTG cell viability. An outline of the steps: as §1

A further assay has as its system Ba/F3 parental cells. Kind of assay: Cell growth inhibitory activity assay (CellTiter-Glo), Ba/F3 parental cells. Conditions: Mus musculus, BaF3, 72 h, CTG cell viability, read-out: IC50 Ba/F3 BCR-ABL1 Parental. The method, boiled down:
as §1

Some results are limits rather than exact numbers.

Take `COc1ccc(-c2ccnc(-n3cc4c(n3)-c3cc(-c5cc(C(=O)Nc6ccc(OC(F)(F)Cl)cc6)cc6nc7n(c56)[C@H](C)COC7)cnc3C4)n2)cc1F` [T-91-B, (R)-N-(4-(chlorodifluoromethoxy)phenyl)-6-(2-(4-(3-fluoro-4-methoxyphenyl)pyrimidin-2-yl)-2,4-dihydropyrazolo[3',4':3,4]cyclopenta[1,2-b]pyridin-7-yl)-4-methyl-3,4-dihydro-1H-benzo[4,5]imidazo[2,1-c][1,4]oxazine-8-carboxamide]: the IC50 with K562 cells is at most 5 nM; against Ba/F3 BCR-ABL1 WT, at most 5 nM; on Ba/F3 BCR-ABL1 T315I it was at most 5 nM; with Ba/F3 parental cells, above 1000 nM.

In the case of `C[C@@H]1COCc2nc3cc(C(=O)Nc4ccc(OC(F)(F)Cl)cc4)cc(-c4cnc5c(c4)-c4nn(-c6nccc(-c7ccccc7F)n6)cc4C5)c3n21` [T-92, (R)-N-(4-(chlorodifluoromethoxy)phenyl)-6-(2-(4-(2-fluorophenyl)pyrimidin-2-yl)-2,4-dihydropyrazolo[3',4':3,4]cyclopenta[1,2-b]pyridin-7-yl)-4-methyl-3,4-dihydro-1H-benzo[4,5]imidazo[2,1-c][1,4]oxazine-8-carboxamide], the IC50 with K562 cells is at most 5 nM; against Ba/F3 BCR-ABL1 WT, at most 5 nM; against Ba/F3 BCR-ABL1 T315I, at most 5 nM; in the assay on Ba/F3 parental cells, above 1000 nM.

As to `COc1cccc(-c2ccnc(-n3cc4c(n3)-c3cc(-c5cc(C(=O)Nc6ccc(OC(F)(F)Cl)cc6)cc6nc7n(c56)[C@H](C)COC7)cnc3C4)n2)c1F` [T-93, (R)-N-(4-(chlorodifluoromethoxy)phenyl)-6-(2-(4-(2-fluoro-3-methoxyphenyl)pyrimidin-2-yl)-2,4-dihydropyrazolo[3',4':3,4]cyclopenta[1,2-b]pyridin-7-yl)-4-methyl-3,4-dihydro-1H-benzo[4,5]imidazo[2,1-c][1,4]oxazine-8-carboxamide], the IC50 in the assay with K562 cells was at most 5 nM; against Ba/F3 BCR-ABL1 WT it was at most 5 nM; against Ba/F3 BCR-ABL1 T315I it was at most 5 nM; in the assay on Ba/F3 parental cells, above 1000 nM.

For the compound `C[C@@H]1COCc2nc3cc(C(=O)Nc4ccc(OC(F)(F)Cl)cc4)cc(-c4cnc5c(c4)-c4nn(-c6nccc(-c7ccc(F)nc7)n6)cc4C5)c3n21` [T-94, (R)-N-(4-(chlorodifluoromethoxy)phenyl)-6-(2-(4-(6-fluoropyridin-3-yl)pyrimidin-2-yl)-2,4-dihydropyrazolo[3',4':3,4]cyclopenta[1,2-b]pyridin-7-yl)-4-methyl-3,4-dihydro-1H-benzo[4,5]imidazo[2,1-c][1,4]oxazine-8-carboxamide], the IC50 was at most 5 nM with K562 cells, at most 5 nM against Ba/F3 BCR-ABL1 WT, at most 5 nM against Ba/F3 BCR-ABL1 T315I and above 1000 nM in the assay on Ba/F3 parental cells.

As for `C[C@@H]1COCc2nc3cc(C(=O)Nc4ccc(OC(F)(F)Cl)cc4)cc(-c4cnc5c(c4)-c4nn(-c6nccc(-c7cccnc7F)n6)cc4C5)c3n21` [T-95, (R)-N-(4-(chlorodifluoromethoxy)phenyl)-6-(2-(4-(2-fluoropyridin-3-yl)pyrimidin-2-yl)-2,4-dihydropyrazolo[3',4':3,4]cyclopenta[1,2-b]pyridin-7-yl)-4-methyl-3,4-dihydro-1H-benzo[4,5]imidazo[2,1-c][1,4]oxazine-8-carboxamide], the IC50 is at most 5 nM in the assay on K562 cells, at most 5 nM against Ba/F3 BCR-ABL1 WT, at most 5 nM at Ba/F3 BCR-ABL1 T315I and above 1000 nM in the assay with Ba/F3 parental cells.

On to `C[C@@H]1COCc2nc3cc(C(=O)Nc4ccc(OC(F)(F)Cl)cc4)cc(-c4cnc5c(c4)-c4nn(-c6nccc(-c7cncc(F)c7)n6)cc4C5)c3n21` [T-96, (R)-N-(4-(chlorodifluoromethoxy)phenyl)-6-(2-(4-(5-fluoropyridin-3-yl)pyrimidin-2-yl)-2,4-dihydropyrazolo[3',4':3,4]cyclopenta[1,2-b]pyridin-7-yl)-4-methyl-3,4-dihydro-1H-benzo[4,5]imidazo[2,1-c][1,4]oxazine-8-carboxamide], for which the IC50 with K562 cells was at most 5 nM; at Ba/F3 BCR-ABL1 WT, at most 5 nM; at Ba/F3 BCR-ABL1 T315I it was at most 5 nM; in the assay on Ba/F3 parental cells it was above 1000 nM.

`COc1ncc(-c2ccnc(-n3cc4c(n3)-c3cc(-c5cc(C(=O)Nc6ccc(OC(F)(F)Cl)cc6)cc6nc7n(c56)[C@H](C)COC7)cnc3C4)n2)cc1F` [T-97, (R)-N-(4-(chlorodifluoromethoxy)phenyl)-6-(2-(4-(5-fluoro-6-methoxyoyridin-3-yl)pyrimidin-2-yl)-2,4-dihydropyrazolo[3',4':3,4]cyclopenta[1,2-b]pyridin-7-yl)-4-methyl-3,4-dihydro-1H-benzo[4,5]imidazo[2,1-c][1,4]oxazine-8-carboxamide]: the IC50 was at most 5 nM in the assay on K562 cells, at most 5 nM on Ba/F3 BCR-ABL1 WT, at most 5 nM against Ba/F3 BCR-ABL1 T315I and above 1000 nM in the assay on Ba/F3 parental cells.

On to `C[C@@H]1COCc2nc3cc(C(=O)Nc4ccc(OC(F)(F)Cl)cc4)cc(-c4cnc5c(c4)-c4nn(-c6nccc(-c7cncc(C#N)c7)n6)cc4C5)c3n21` [T-98, (R)-N-(4-(chlorodifluoromethoxy)phenyl)-6-(2-(4-(5-cyanopyridin-3-yl)pyrimidin-2-yl)-2,4-dihydropyrazolo[3',4':3,4]cyclopenta[1,2-b]pyridin-7-yl)-4-methyl-3,4-dihydro-1H-benzo[4,5]imidazo[2,1-c][1,4]oxazine-8-carboxamide], for which the IC50 in the assay with K562 cells was at most 5 nM; on Ba/F3 BCR-ABL1 WT, at most 5 nM; on Ba/F3 BCR-ABL1 T315I, at most 5 nM; with Ba/F3 parental cells, above 1000 nM.

As for `C[C@@H]1COCc2nc3cc(C(=O)Nc4ccc(OC(F)(F)Cl)cc4)cc(-c4cnc5c(c4)-c4nn(-c6nccc(-c7ccc(C#N)nc7)n6)cc4C5)c3n21` [T-99, (R)-N-(4-(chlorodifluoromethoxy)phenyl)-6-(2-(4-(6-cyanopyridin-3-yl)pyrimidin-2-yl)-2,4-dihydropyrazolo[3',4':3,4]cyclopenta[1,2-b]pyridin-7-yl)-4-methyl-3,4-dihydro-1H-benzo[4,5]imidazo[2,1-c][1,4]oxazine-8-carboxamide], the IC50 in the assay on K562 cells was at most 5 nM; against Ba/F3 BCR-ABL1 WT, at most 5 nM; on Ba/F3 BCR-ABL1 T315I, at most 5 nM; in the assay with Ba/F3 parental cells it was above 1000 nM.

Turning to `C[C@@H]1COCc2nc3cc(C(=O)Nc4ccc(OC(F)(F)Cl)cc4)cc(-c4cnc5c(c4)-c4nn(-c6nccc(-c7cncnc7)n6)cc4C5)c3n21` [T-100, (R)-6-(2-([4,5'-bipyrimidin]-2-yl)-2,4-dihydropyrazolo[3',4':3,4]cyclopenta[1,2-b]pyridin-7-yl)-N-(4-(chlorodifluoromethoxy)phenyl)-4-methyl-3,4-dihydro-1H-benzo[4,5]imidazo[2,1-c][1,4]oxazine-8-carboxamide], the IC50 with K562 cells is at most 5 nM; at Ba/F3 BCR-ABL1 WT, at most 5 nM; against Ba/F3 BCR-ABL1 T315I, at most 5 nM; with Ba/F3 parental cells, above 1000 nM.

As to `CC(C)c1cnc(-n2cc3c(n2)-c2cc(-c4cc(C(=O)Nc5ccc(OC(F)(F)Cl)cc5)cc5nc6n(c45)[C@H](C)COC6)cnc2C3)nc1` [T-101, (R)-N-(4-(chlorodifluoromethoxy)phenyl)-6-(2-(5-isopropyloyrimidin-2-yl)-2,4-dihydropyrazolo[3',4':3,4]cyclooenta[1,2-b]pyridin-7-yl)-4-methyl-3,4-dihydro-1H-benzo[4,5]imidazo[2,1-c][1,4]oxazine-8-carboxamide], the IC50 in the assay with K562 cells was at most 5 nM; at Ba/F3 BCR-ABL1 WT it was at most 5 nM; against Ba/F3 BCR-ABL1 T315I, at most 5 nM; in the assay with Ba/F3 parental cells, above 1000 nM.

On to `C[C@@H]1COCc2nc3cc(C(=O)Nc4ccc(OC(F)(F)Cl)cc4)cc(-c4cnc5c(c4)-c4nn(-c6nccn6C)cc4C5)c3n21` [T-102, (R)-N-(4-(chlorodifluoromethoxy)phenyl)-4-methyl-6-(2-(1-methyl-1H-imidazol-2-yl)-2,4-dihydropyrazolo[3',4':3,4]cyclopenta[1,2-b]pyridin-7-yl)-3,4-dihydro-1H-benzo[4,5]imidazo[2,1-c][1,4]oxazine-8-carboxamide], for which the IC50 is at most 5 nM in the assay on K562 cells, at most 5 nM against Ba/F3 BCR-ABL1 WT, at most 5 nM against Ba/F3 BCR-ABL1 T315I and above 1000 nM with Ba/F3 parental cells.

Consider `Cc1ccc(-n2cc3c(n2)-c2cc(-c4cc(C(=O)Nc5ccc(OC(F)(F)Cl)cc5)cc5nc6n(c45)[C@H](C)COC6)cnc2C3)nn1` [T-104-A, (R)-N-(4-(chlorodifluoromethoxy)phenyl)-4-methyl-6-(2-(6-methylpyridazin-3-yl)-2,4-dihydropyrazolo[3',4':3,4]cyclopenta[1,2-b]pyridin-7-yl)-3,4-dihydro-1H-benzo[4,5]imidazo[2,1-c][1,4]oxazine-8-carboxamide], for which the IC50 with K562 cells was at most 5 nM; at Ba/F3 BCR-ABL1 WT, at most 5 nM; at Ba/F3 BCR-ABL1 T315I, 5 to 50 nM; in the assay with Ba/F3 parental cells, above 1000 nM.

Consider `Cc1ccc(-n2ncc3c2-c2cc(-c4cc(C(=O)Nc5ccc(OC(F)(F)Cl)cc5)cc5nc6n(c45)[C@H](C)COC6)cnc2C3)nn1` [T-104-B, (R)-N-(4-(chlorodifluoromethoxy)phenyl)-4-methyl-6-(1-(6-methylpyridazin-3-yl)-1,4-dihydropyrazolo[3',4':3,4]cyclopenta[1,2-b]pyridin-7-yl)-3,4-dihydro-1H-benzo[4,5]imidazo[2,1-c][1,4]oxazine-8-carboxamide], for which the IC50 in the assay on K562 cells is at most 5 nM; against Ba/F3 BCR-ABL1 WT it was at most 5 nM; against Ba/F3 BCR-ABL1 T315I, 5 to 50 nM; with Ba/F3 parental cells, above 1000 nM.

These data come from patent publication EP4768484A1, “HETEROCYCLIC FUSED RING COMPOUND, AND COMPOSITION AND USE THEREOF” (Shenzhen TargetRx, Inc., priority 2023, dated 2025).
